Assay results published in PMC3568244 (Molecular and cellular endocrinology, 2012).
Like-named read-outs stand apart in the source and are kept apart here.

Key:
Test in all cases: spectral binding titration
[1] = target: T1, CYP11A1 (Bos taurus, UniProt P00189)
T1 sequence (P00189 40-520): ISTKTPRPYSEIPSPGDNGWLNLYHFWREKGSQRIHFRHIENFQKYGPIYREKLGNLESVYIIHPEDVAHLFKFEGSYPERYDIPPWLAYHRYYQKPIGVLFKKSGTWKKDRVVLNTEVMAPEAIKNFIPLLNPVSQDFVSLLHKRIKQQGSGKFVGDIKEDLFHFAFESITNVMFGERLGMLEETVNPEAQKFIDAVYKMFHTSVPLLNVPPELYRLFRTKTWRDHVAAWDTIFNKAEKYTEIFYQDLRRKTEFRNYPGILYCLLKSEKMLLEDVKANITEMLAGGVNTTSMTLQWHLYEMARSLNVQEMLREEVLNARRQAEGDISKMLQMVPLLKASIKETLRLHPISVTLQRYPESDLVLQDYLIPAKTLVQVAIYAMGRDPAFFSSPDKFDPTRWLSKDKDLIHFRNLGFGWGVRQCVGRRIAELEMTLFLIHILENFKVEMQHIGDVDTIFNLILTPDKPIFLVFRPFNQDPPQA

[2] = target: T1, CYP11A1; remark: listed apart in the source
[3] = target: T1, CYP11A1; remark: listed apart in the source

Row | Structure (SMILES) | Kd [1] | Kd [2] | also measured
1 | CC(=O)N1CCN(c2ccc(OC[C@H]3CO[C@@](Cn4ccnc4)(c4ccc(Cl)cc4Cl)O3)cc2)CC1 (racemic) [Ketoconazole] | 1.5 µM | – | –
2 | NC(=NCc1ccc(Cl)cc1)SCCCc1cnc[nH]1 [Clobenpropit] | – | 18 µM | –
3 | Cc1cccc([C@H](C)c2cnc[nH]2)c1C [Dexmedetomidine] | – | 7 µM | –
4 | CC[C@@H]([C@H](C)O)n1ncn(-c2ccc(N3CCN(c4ccc(OC[C@@H]5CO[C@@](Cn6cncn6)(c6ccc(F)cc6F)C5)cc4)CC3)cc2)c1=O [Posaconazole] | 1 µM | – | –
5 | CC(C)CCC[C@@H](C)[C@H]1CC[C@H]2[C@@H]3CC=C4C[C@@H](O)CC[C@]4(C)[C@H]3CC[C@]12C [cholesterol] | – | – | Kd [3]: 0.2 µM
